Values of other authors as cited in PubChem BioAssay AID1259409 (Chemical Carcinogenesis Research Information System (CCRIS), 2018).

System: rodent chemically induced tumor inhibition, incidence and multiplicity
Test: CCRIS tumor inhibitor studies

In the case of `COc1cc(/C=C/C(=O)CC(=O)/C=C/c2ccc(O)c(OC)c2)ccc1O`, the “tumour outcome (control, treated, inhibition, significance)” value (Carcinogen: BENZO[A]PYRENE, 50-32-8, Dose [Inhibitor]: 0, 10 UMOL IN ACETONE APPLIED 120, 60 AND 5 MIN PRIOR TO CARCINOGEN DOSE (STUDY DURATION: 24 WK), Route [Inhibitor]: DERMAL, Species: MOUSE, Strain/Sex: CD-1/FEMALE, Target Tissue: Type of Lesion: SKIN: TUMORS, Dose [Carcinogen]: 200 NMOL ONCE, Promoter: 12-O-TETRADECANOYLPHORBOL-13-ACETATE, 16561-29-8) is given as 96%, 77%, 20%, not calculated, the “tumour outcome (control, treated, inhibition, significance)” value (Carcinogen: METHYL(ACETOXYMETHYL)NITROSAMINE, 56856-83-8, Dose [Inhibitor]: 0, 5% IN DIET FOR DURATION OF STUDY BEGINNING 2 WK PRIOR TO CARCINOGEN TREATMENT (STUDY DURATION: 13 MO), Route [Inhibitor]: ORAL, Species: HAMSTER, Strain/Sex: SYRIAN/FEMALE, Target Tissue: Type of Lesion: ORAL: CAVITY, Dose [Carcinogen]: 2 MG/KG BW APPLIED TO RIGHT CHEEK POUCH 2/MO FOR 6 MO, Promoter: NONE USED) is given as 14/15 (93%), 3/16 (19%), 80%, p<0.001 and the “tumour outcome (control, treated, inhibition, significance)” value (Carcinogen: N-ETHYL-N'-NITRO-N-NITROSOGUANDINDE, 4245-77-6, Dose [Inhibitor]: 0, 1% COMMERCIAL GRADE CURCUMIN IN DIET FOR 16 WK BEGINNING 1 WK POST CARCINOGEN TREATMENT (STUDY DURATION: 20 WK), Route [Inhibitor]: ORAL, Species: MOUSE, Strain/Sex: C57BL/MALE, Target Tissue: Type of Lesion: DUODENUM: ADENOMA, Dose [Carcinogen]: 120 MG/L IN DRINKING WATER FOR 4 WK, Promoter: NONE USED) is given as 45%, 28%, 38%, not significant. For the same compound, the “tumour outcome (control, treated, inhibition, significance)” value (Carcinogen: N-ETHYL-N'-NITRO-N-NITROSOGUANIDINE, 4245-77-6, Dose [Inhibitor]: 0, 0.5% COMMERCIAL GRADE CURCUMIN IN DIET FOR 16 WK BEGINNING 1 WK POST CARCINOGEN TREATMENT (STUDY DURATION: 20 WK), Route [Inhibitor]: ORAL, Species: MOUSE, Strain/Sex: C57BL/MALE, Target Tissue: Type of Lesion: DUODENUM: ADENOCARCINOMA, Dose [Carcinogen]: 120 MG/L IN DRINKING WATER FOR 4 WK, Promoter: NONE USED) was 6%, 4%, 33%, not significant, the “tumour outcome (control, treated, inhibition, significance)” value (Carcinogen: N-ETHYL-N'-NITRO-N-NITROSOGUANIDINE, 4245-77-6, Dose [Inhibitor]: 0, 0.5% COMMERCIAL GRADE CURCUMIN IN DIET FOR 16 WK BEGINNING 1 WK POST CARCINOGEN TREATMENT (STUDY DURATION: 20 WK), Route [Inhibitor]: ORAL, Species: MOUSE, Strain/Sex: C57BL/MALE, Target Tissue: Type of Lesion: DUODENUM: ADENOMA, Dose [Carcinogen]: 120 MG/L IN DRINKING WATER FOR 4 WK, Promoter: NONE USED) was 45%, 20%, 56%, not significant and the “tumour outcome (control, treated, inhibition, significance)” value (Carcinogen: N-ETHYL-N'-NITRO-N-NITROSOGUANIDINE, 4245-77-6, Dose [Inhibitor]: 0, 1% COMMERCIAL GRADE CURCUMIN IN DIET FOR 16 WK BEGINNING 1 WK POST CARCINOGEN TREATMENT (STUDY DURATION: 20 WK), Route [Inhibitor]: ORAL, Species: MOUSE, Strain/Sex: C57BL/MALE, Target Tissue: Type of Lesion: DUODENUM: ADENOCARCINOMA, Dose [Carcinogen]: 120 MG/L IN DRINKING WATER FOR 4 WK, Promoter: NONE USED) was 6%, 4%, 33%, not significant. For the same compound, the “tumour outcome (control, treated, inhibition, significance)” value (Carcinogen: N-ETHYL-N'-NITRO-N-NITROSOGUANIDINE, 4245-77-6, Dose [Inhibitor]: 0, 2% COMMERCIAL GRADE CURCUMIN IN DIET FOR 16 WK BEGINNING 1 WK POST CARCINOGEN TREATMENT (STUDY DURATION: 20 WK), Route [Inhibitor]: ORAL, Species: MOUSE, Strain/Sex: C57BL/MALE, Target Tissue: Type of Lesion: DUODENUM: ADENOCARCINOMA, Dose [Carcinogen]: 120 MG/L IN DRINKING WATER FOR 4 WK, Promoter: NONE USED) was 6%, 5%, 17%, not significant, the “tumour outcome (control, treated, inhibition, significance)” value (Carcinogen: N-ETHYL-N'-NITRO-N-NITROSOGUANIDINE, 4245-77-6, Dose [Inhibitor]: 0, 2% COMMERCIAL GRADE CURCUMIN IN DIET FOR 16 WK BEGINNING 1 WK POST CARCINOGEN TREATMENT (STUDY DURATION: 20 WK), Route [Inhibitor]: ORAL, Species: MOUSE, Strain/Sex: C57BL/MALE, Target Tissue: Type of Lesion: DUODENUM: ADENOMA, Dose [Carcinogen]: 120 MG/L IN DRINKING WATER FOR 4 WK, Promoter: NONE USED) was 45%, 27%, 40%, not significant and the “tumour outcome (control, treated, inhibition, significance)” value (Carcinogen: N-METHYL-N'-NITRO-N-NITROSOGUANIDINE, 70-25-7, Route [Inhibitor]: 0, 0.05% IN DIET FOR 55 WK BEGINNING IMMEDIATELY POST-CARCINOGEN TREATMENT, THEN SWITCHED TO BASAL DIET FOR 4 WK (STUDY, Species: RAT, Strain/Sex: WISTAR/MALE, Target Tissue: Type of Lesion: GLANDULAR STOMACH: ADENOCARCINOMA, Dose [Carcinogen]: 100 PPM IN DRINKING WATER FOR 8 WK, Promoter: SODIUM CHLORIDE, 7647-14-5) was 1/29 (3%), 2/29 (7%), -133%, not significant. For the same compound, the “tumour outcome (control, treated, inhibition, significance)” value (Carcinogen: N-METHYL-N'-NITRO-N-NITROSOGUANIDINE, 70-25-7, Route [Inhibitor]: 0, 0.2% IN DIET FOR 55 WK BEGINNING IMMEDIATELY POST-CARCINOGEN TREATMENT, THEN SWITCHED TO BASAL DIET FOR 4 WK (STUDY D, Species: RAT, Strain/Sex: WISTAR/MALE, Target Tissue: Type of Lesion: GLANDULAR STOMACH: ADENOCARCINOMA, Dose [Carcinogen]: 100 PPM IN DRINKING WATER FOR 8 WK, Promoter: SODIUM CHLORIDE, 7647-14-5) was 1/29 (3%), 2/30 (7%), -133%, not significant, the “tumour outcome (control, treated, inhibition, significance)” value (Carcinogen: NONE USED, Dose [Inhibitor]: 0, 2% IN DIET FROM 12 MO OF AGE (STUDY DURATION: 15 MO), Route [Inhibitor]: ORAL, Species: MOUSE, Strain/Sex: C3H/FEMALE, Target Tissue: Type of Lesion: MAMMARY GLAND: TUMOR, Promoter: NONE USED) was 12/20 (60%), 8/18 (44%), 27%, not calculated and the “tumour outcome (control, treated, inhibition, significance)” value (Carcinogen: NONE USED, Dose [Inhibitor]: 0, 5% IN DIET FROM 6 MO OF AGE (STUDY DURATION: 15 MO), Route [Inhibitor]: ORAL, Species: MOUSE, Strain/Sex: C3H/FEMALE, Target Tissue: Type of Lesion: MAMMARY GLAND: TUMOR, Promoter: NONE USED) was 12/20 (60%), 0/15 (0%), 100%, not calculated. The “tumour outcome (control, treated, inhibition, significance)” value (Carcinogen: NONE USED, Dose [Inhibitor]: 0, 5% IN DIET FROM 8 MO OF AGE (STUDY DURATION: 15 MO), Route [Inhibitor]: ORAL, Species: MOUSE, Strain/Sex: C3H/FEMALE, Target Tissue: Type of Lesion: MAMMARY GLAND: TUMOR, Promoter: NONE USED) was 12/20 (60%), 7/21 (33%), 45%, not calculated and the “tumour outcome (control, treated, inhibition, significance)” value (Carcinogen: NONE USED, Dose [Inhibitor]: O, 5% IN DIET FROM 12 MO OF AGE (STUDY DURATION: 15 MO), Route [Inhibitor]: ORAL, Species: MOUSE, Strain/Sex: C3H/FEMALE, Target Tissue: Type of Lesion: MAMMARY GLAND: TUMOR, Promoter: NONE USED) was 12/20 (60%), 5/17 (29%), 52%, not calculated.
